Laboratory results taken from PubChem BioAssay AID652124 (The Scripps Research Institute Molecular Screening Center, 2013).
Calls of active or inactive are those of the source. How the calls were made is not given here.

The compounds below were run against Perilipin-5 (Homo sapiens) + 1-acylglycerol-3-phosphate O-acyltransferase ABHD5 (Homo sapiens) (UniProt Q00G26+Q8WTS1) (assay: ABHD5-PLIN5 binding inhibitors, late-stage follow-up, biochemical, luminescence, dose response, round 2 (AID 652124)). Details: biochemical ABHD5-PLIN5 interaction.
Perilipin-5 (Homo sapiens) + 1-acylglycerol-3-phosphate O-acyltransferase ABHD5 (Homo sapiens), sequence (Q00G26 whole entry, looked up): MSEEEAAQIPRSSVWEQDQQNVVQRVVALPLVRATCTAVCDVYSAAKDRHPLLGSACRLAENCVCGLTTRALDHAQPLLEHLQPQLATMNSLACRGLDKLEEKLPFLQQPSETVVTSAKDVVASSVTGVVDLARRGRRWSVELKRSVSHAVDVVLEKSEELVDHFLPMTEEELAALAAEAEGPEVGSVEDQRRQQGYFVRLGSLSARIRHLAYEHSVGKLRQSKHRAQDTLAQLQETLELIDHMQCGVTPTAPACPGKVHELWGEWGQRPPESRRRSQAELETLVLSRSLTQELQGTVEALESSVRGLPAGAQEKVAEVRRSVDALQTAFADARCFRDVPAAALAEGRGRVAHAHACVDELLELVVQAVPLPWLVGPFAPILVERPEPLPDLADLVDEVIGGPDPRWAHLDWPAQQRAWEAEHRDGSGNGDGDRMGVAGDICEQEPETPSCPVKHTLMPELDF
Perilipin-5 (Homo sapiens) + 1-acylglycerol-3-phosphate O-acyltransferase ABHD5 (Homo sapiens), sequence (Q8WTS1 whole entry, looked up): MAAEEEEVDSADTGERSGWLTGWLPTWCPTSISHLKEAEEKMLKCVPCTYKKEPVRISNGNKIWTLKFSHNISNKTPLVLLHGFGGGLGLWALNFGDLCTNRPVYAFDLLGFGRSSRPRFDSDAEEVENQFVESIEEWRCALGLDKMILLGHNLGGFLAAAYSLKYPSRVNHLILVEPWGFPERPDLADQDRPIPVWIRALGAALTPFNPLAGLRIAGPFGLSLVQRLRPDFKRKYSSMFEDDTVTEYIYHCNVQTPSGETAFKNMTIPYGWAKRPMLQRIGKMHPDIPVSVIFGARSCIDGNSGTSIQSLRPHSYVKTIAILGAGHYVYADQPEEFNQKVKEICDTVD
For `CN1C(=O)c2ccccc2Oc2ccc(NC(=O)c3cccs3)cc21`, the IC50 was > 39.8 µM (inactive).
An IC50 of 4.72 µM was found for `Cc1ccc2c(CC(=O)N3CCN(S(=O)(=O)c4ccc5c(c4)OCCCO5)CC3)coc2c1C` in this work.
In the case of `CN(C)CCCN(C(=O)CCc1ccccc1)c1nc2ccc(Cl)cc2s1`, the IC50 is reported as “inactive”.
An IC50 of 5.91 µM was found for `Cc1ccc(CS(=O)(=O)c2ncc(Cl)c(C(=O)N3CCN(C)CC3)n2)cc1` in this work.
`CN(C)CCCN(C(=O)C1CCCCC1)c1nc2cc(Br)ccc2s1` was tested, and the IC50 was “inactive”.
An IC50 of 1.64 µM was found for `O=C(c1nc(S(=O)(=O)Cc2ccccc2)ncc1Cl)N(Cc1ccccc1)Cc1ccco1` in this work.
An IC50 of 6.48 µM was found for `CCS(=O)(=O)c1ncc(Cl)c(C(=O)Nc2ccc(S(N)(=O)=O)cc2)n1` in this work.
In the case of `CCCCCNC(=O)Nc1ccc2c(c1)Sc1ccccc1C(=O)N2C`, the IC50 is reported as > 39.8 µM (inactive).
For `CC(C)N1C(=O)c2ccccc2Oc2ccc(NC(=O)c3ccccc3)cc21`, the IC50 was > 39.8 µM (inactive).
With `CCCC(=O)N(CCCN1CCOCC1)c1nc2ccc(Cl)cc2s1` the IC50 was > 39.8 µM (inactive).
For `O=C(Cc1ccc2c(c1)CCCC2)N1CCN(S(=O)(=O)c2ccc3c(c2)OCCO3)CC1`, the IC50 was “inactive”.
For `COc1ccc(CC(=O)N2CCCN(S(=O)(=O)c3ccc(C)cc3)CC2)cc1OC`, the IC50 was > 39.8 µM (inactive).
An IC50 of 1.45 µM was found for `CS(=O)(=O)c1ncc(Cl)c(C(=O)Nc2ccc(C(F)(F)F)cc2)n1` in this work.
With `O=C(C1COc2ccccc2O1)N1CCN(S(=O)(=O)c2ccc3c(c2)OCCO3)CC1` (configuration not stated) the IC50 was > 39.8 µM (inactive).
An IC50 of 1.72 µM was found for `CN1C(=O)c2ccccc2Sc2ccc(NC(=O)NCCCc3ccccc3)cc21` in this work.
An IC50 of 4.12 µM was found for `CCCS(=O)(=O)c1ccc(Cl)c(C(=O)Nc2ccc(C(=O)OCC)cc2)c1` in this work.
With `CCCCCCNC(=O)Nc1ccc2c(c1)Sc1ccccc1C(=O)N2C` the IC50 was > 39.8 µM (inactive).
For `CN(C)CCCN(C(=O)c1cc2ccccc2oc1=O)c1nc2ccc(Cl)cc2s1`, the IC50 was “inactive”.
With `CCCC(=O)Nc1ccc2c(c1)C(=O)N(C)c1ccccc1O2` the IC50 was > 39.8 µM (inactive).
An IC50 of 4.13 µM was found for `CCS(=O)(=O)c1ncc(Cl)c(C(=O)Nc2ccc(C)cc2)n1` in this work.
An IC50 of 4.44 µM was found for `CCCS(=O)(=O)c1ncc(Cl)c(C(=O)Nc2ccc(C(=O)OC)cc2)n1` in this work.
An IC50 of 2.19 µM was found for `Cc1ccc(CS(=O)(=O)c2ncc(Cl)c(C(=O)Nc3cccc4ccccc34)n2)cc1` in this work.
With `CN(C)CCCN(C(=O)C1CCCCC1)c1nc2cc(Cl)ccc2s1` the IC50 was > 39.8 µM (inactive).
For `O=C(CCn1cnc2ccccc21)N1CCN(S(=O)(=O)c2ccc3c(c2)OCCO3)CC1`, the IC50 was > 39.8 µM (inactive).
An IC50 of 2.17 µM was found for `O=C(Nc1ccc2ccccc2c1)c1nc(S(=O)(=O)Cc2ccccc2)ncc1Cl` in this work.
An IC50 of 3.56 µM was found for `CN(C(=O)c1nc(S(C)(=O)=O)ncc1Cl)c1ccccc1` in this work.
An IC50 of 4.98 µM was found for `CN1C(=O)c2ccccc2Sc2ccc(NC(=O)NCCc3cccs3)cc21` in this work.
With `CN1C(=O)c2ccccc2Oc2ccc(NC(=O)c3cc4ccccc4[nH]3)cc21` the IC50 was > 39.8 µM (inactive).
For `Cc1ccc2cc(CC(=O)N3CCN(S(=O)(=O)c4ccc5c(c4)OCCO5)CC3)oc2c1`, the IC50 was “inactive”.
With `COc1ccc(CC(=O)N2CCN(S(=O)(=O)c3ccc4c(c3)OCCCO4)CC2)cc1` the IC50 was > 39.8 µM (inactive).
An IC50 of 3.7 µM was found for `CN1C(=O)c2ccccc2Sc2ccc(NC(=O)NCCc3ccccc3)cc21` in this work.
With `CCCC(=O)Nc1ccc2c(c1)C(=O)N(C)c1cc(C)ccc1O2` the IC50 was > 39.8 µM (inactive).
In the case of `O=C(CCc1nc2ccccc2s1)N1CCN(S(=O)(=O)c2ccc3c(c2)OCCO3)CC1`, the IC50 is reported as > 39.8 µM (inactive).
For `CN(C)CCCN(C(=O)Cc1ccc(F)cc1)c1nc2ccc(Cl)cc2s1`, the IC50 was “inactive”.
With `CCCNC(=O)Nc1ccc2c(c1)N(CC)C(=O)c1ccccc1S2` the IC50 was “inactive”.
For `CCCCCCCNC(=O)Nc1ccc2c(c1)Sc1ccccc1C(=O)N2C`, the IC50 was “inactive”.
An IC50 of 1.76 µM was found for `Cc1ccc(CS(=O)(=O)c2ncc(Cl)c(C(=O)Nc3cccc(C(F)(F)F)c3)n2)cc1` in this work.
An IC50 of 3.8 µM was found for `NS(=O)(=O)c1ccc(NC(=O)c2nc(S(=O)(=O)Cc3ccccc3)ncc2Cl)cc1` in this work.
An IC50 of 2.95 µM was found for `COc1ccc(CCNC(=O)c2nc(S(=O)(=O)Cc3ccc(F)cc3)ncc2Cl)cc1OC` in this work.
An IC50 of 3.88 µM was found for `CCc1ccc2c(CC(=O)N3CCN(S(=O)(=O)c4ccc5c(c4)OCCO5)CC3)coc2c1` in this work.
With `Cc1ccc(CS(=O)(=O)c2ncc(Cl)c(C(=O)Nc3nnc(C(C)C)s3)n2)cc1` the IC50 was > 13.3 µM (inactive).
For `O=C(Cc1cccc(F)c1)N1CCN(S(=O)(=O)c2ccc3c(c2)OCCO3)CC1`, the IC50 was > 39.8 µM (inactive).
An IC50 of 3.15 µM was found for `Cc1ccc(CS(=O)(=O)c2ncc(Cl)c(C(=O)NCc3ccc4c(c3)OCO4)n2)cc1` in this work.
`O=C(CCc1c[nH]c2ccccc12)N1CCN(S(=O)(=O)c2ccc3c(c2)OCCO3)CC1` was tested, and the IC50 was > 39.8 µM (inactive).
An IC50 of 4.24 µM was found for `Cc1ccc(NC(=O)c2nc(S(C)(=O)=O)ncc2Cl)cc1` in this work.
In the case of `COc1ccc(OCC(=O)Nc2ccc3c(c2)N(C(C)C)C(=O)c2ccccc2O3)cc1`, the IC50 is reported as > 39.8 µM (inactive).
With `CC(NC(=O)CN1CCN(S(=O)(=O)c2ccc3c(c2)OCCCO3)CC1)c1cc2ccccc2o1` (configuration not stated) the IC50 was > 39.8 µM (inactive).
